From PubChem BioAssay (NCI) come the findings set out here.

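48-hour exposure; five concentrations; linearly interpolated endpoints. GI50: concentration for 50% inhibition of growth. At the TGI there is no net growth.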

Some test systems named below: A498 renal; MDA-MB-435; HT29 colon; SW-620 colon; EKVX NSCLC; NCI-H23 lung; HCT-116 colon; ACHN renal; KM12 colon; CAKI-1 renal.
Experiment in all cases: NCI-60 cell line screen, 48 h

Take `OCCCCC#Cc1ccccc1C#Cc1cnccn1`: the GI50 was 13.5 µM in the assay on A498 renal; 33.8 µM in the assay with MDA-MB-435; 27.6 µM with HT29 colon; 62.6 µM in the assay with SW-620 colon; 36.5 µM in the assay on EKVX NSCLC; 40.8 µM with NCI-H23 lung. Besides, the GI50 in the assay on HCT-116 colon is 42.6 µM; in the assay with ACHN renal it was 38.8 µM; in the assay on KM12 colon, 36.2 µM; in the assay with CAKI-1 renal, 26.4 µM. Moreover, the TGI in the assay with A498 renal was 53.9 µM; in the assay with MDA-MB-435 it was above 100 µM; in the assay with HT29 colon, above 100 µM; in the assay with SW-620 colon it was above 100 µM; in the assay on EKVX NSCLC it was 95.3 µM; in the assay on NCI-H23 lung, above 100 µM. Moreover, the TGI in the assay with HCT-116 colon, with ACHN renal, in the assay on KM12 colon and in the assay with CAKI-1 renal was above 100 µM each time.

With `O=[N+]([O-])c1cccc(-c2ncc(-c3ccc(Cl)cc3Cl)[nH]2)c1`, the GI50 in the assay on A498 renal was 6.12 µM; in the assay on MDA-MB-435, 3.62 µM; in the assay with HT29 colon it was 1.88 µM; with SW-620 colon, 1.6 µM; in the assay on EKVX NSCLC it was 2.15 µM; with NCI-H23 lung, 10.6 µM. The GI50 with HCT-116 colon is 2.21 µM; in the assay on ACHN renal, 7.48 µM; in the assay with KM12 colon it was 1.75 µM; in the assay with CAKI-1 renal, 1.82 µM. The TGI with A498 renal was determined as 22.6 µM; with MDA-MB-435, 12.2 µM; with HT29 colon, 4.79 µM; in the assay on SW-620 colon, 3.16 µM; with EKVX NSCLC, 6.81 µM; in the assay with NCI-H23 lung, 43.7 µM. Also, the TGI was 5.95 µM in the assay on HCT-116 colon, 18.3 µM with ACHN renal, 3.41 µM with KM12 colon and 4.71 µM in the assay with CAKI-1 renal.

`COc1cc(/C=C\c2cccnc2Nc2ccccc2)cc(OC)c1OC`: the GI50 in the assay with A498 renal is 2.64 µM; in the assay with MDA-MB-435, 5.63 µM; in the assay with HT29 colon it was 5.51 µM; in the assay on SW-620 colon, 4.81 µM; in the assay on EKVX NSCLC, 7.55 µM; in the assay on NCI-H23 lung, 10.2 µM. In addition, the GI50 in the assay on HCT-116 colon was 3.77 µM; in the assay on ACHN renal, 5.33 µM; with KM12 colon, 6.5 µM; in the assay on CAKI-1 renal, 4.01 µM. Also, the TGI in the assay with A498 renal is 36.5 µM; in the assay on MDA-MB-435, 43.3 µM; in the assay with HT29 colon it was 98.3 µM; with SW-620 colon, above 100 µM; in the assay on EKVX NSCLC, above 100 µM; in the assay on NCI-H23 lung, above 100 µM. Also, the TGI in the assay with HCT-116 colon was 15.6 µM; with ACHN renal, 78.1 µM; in the assay with KM12 colon, above 100 µM; in the assay on CAKI-1 renal it was 61.1 µM.

For the compound `Cc1cc2c(cc1Cl)SC1=NN(C)C(c3ccccc3O)N1S2(=O)=O` (stereo not given), the GI50 in the assay on A498 renal was above 100 µM; in the assay with MDA-MB-435, above 100 µM; with HT29 colon it was above 100 µM; in the assay on SW-620 colon, 94.5 µM; in the assay with EKVX NSCLC, 81.7 µM; in the assay on NCI-H23 lung it was above 100 µM. For the same compound, the GI50 is 44.1 µM with HCT-116 colon, above 100 µM in the assay with ACHN renal, 57.7 µM in the assay on KM12 colon and above 100 µM in the assay on CAKI-1 renal. Further, the TGI in the assay on A498 renal, with MDA-MB-435, in the assay on HT29 colon, with SW-620 colon, with EKVX NSCLC and in the assay with NCI-H23 lung was above 100 µM each time. Also, the TGI with HCT-116 colon, with ACHN renal, in the assay on KM12 colon and in the assay with CAKI-1 renal was above 100 µM throughout.

Take `CCN(CC)CCOc1ccc(C2=C(c3ccccc3)CCc3cc(OC)ccc32)cc1`: the GI50 with A498 renal is 4.23 µM; with MDA-MB-435 it was 1.48 µM; in the assay on HT29 colon, 0.445 µM; in the assay with SW-620 colon, 2.78 µM; in the assay with EKVX NSCLC, 3.44 µM; in the assay with NCI-H23 lung, 2.9 µM. The GI50 with HCT-116 colon is 1.55 µM; with ACHN renal it was 4.2 µM; in the assay with KM12 colon it was 2.46 µM; in the assay with CAKI-1 renal, 2.18 µM. Further, the TGI in the assay on A498 renal came to 9.44 µM; in the assay on MDA-MB-435, 3.4 µM; with HT29 colon, 1.87 µM; in the assay on SW-620 colon, 8.09 µM; in the assay on EKVX NSCLC it was 14 µM; with NCI-H23 lung it was 11.3 µM. The TGI with HCT-116 colon stood at 4.19 µM; in the assay on ACHN renal, 15.4 µM; with KM12 colon it was 6.85 µM; in the assay on CAKI-1 renal, 5.86 µM.
